Assay results as given in US9844535B2, “SHP2 inhibitors and methods of treating autoimmune and/or glomerulonephritis-associated diseases using SHP2 inhibitors” (Indiana University Research and Technology Corporation, priority 2013, dated 2017).
Entries after “also recorded” stand apart in the source; their conditions may differ.

Tests used:
[1] = test system: human T cells isolated from SLE patients; test: Cultured human SLE T cells: IFNγ secretion, proliferation, viability; format: cell-based
Source text: All SLE human cells in the following Examples were isolated from SLE patients diagnosed according to the American College of Rheumatology classification criteria and recruited from the Division of Rheumatology at Beth Israel Deaconess Medical Center, Boston, Mass. under IRB protocol 2006-P-0298. Healthy gender- and age-matched control cells were also used for the Examples herein. Briefly, peripheral venous blood was collected in heparin-lithium tubes and peripheral blood mononuclear cells were prepared with ficoll-Paque centrifugation, as previously described in Grammatikos et al., Clin Immunol. 2014; 150: 192-200.
Human T cells were purified from frozen peripheral blood mononuclear cells (PBMC) isolated from SLE or normal donor patients. Briefly, frozen PBMCs were thawed in a 37° C. water bath for 1 to 2 minutes, and then gently added to pre-warmed RPMI1640 medium with 10% FBS (total 10 ml). The cells were centrifuged at 2000 rpm for 5 minutes at room temperature. The cell pellet was washed with 5 ml of pre-warmed RPMI 1640 medium with 10% FBS three times, followed by a final D-PBS (no calcium, no magnesium buffer) wash. Human T cells were then purified by a Pan T Cell Isolation Kit (human) from Miltenyi Biotec, as described above.
The purity of isolated T cells routinely exceeded 94%. After purification, T cells were resuspended in RPMI1640 medium with 10% FBS and 1×10^5 cells/well in 100 ul total volume was loaded onto a 96-well plate, either left uncoated or precoated with anti-CD3 antibody (1 ug/ml) (OKT3; Biolegend). […]
For cell viability, an MTT (thiazolyl Blue tetrazolium Bromide, M2128, Sigma, St. Louis, Mo.) assay was employed. […] Spectrophotometric absorbance of the samples was assessed using a microplate reader at a wavelength of 595 nm. T cell numbers/proliferation was assessed by cell count using a hemocytometer. […] After mixing, 10 μl of the mixture was loaded onto the hemocytometer and the total average number of cells/well was calculated. […]

SHP2 = SHP2 (Mus musculus (Mouse), UniProt P35235); test: Immune complex PTP assay on tissue lysates of inhibitor-treated MRL/lpr mice; format: in vivo; settings: 7.5 mg/kg daily for 4 weeks, listed as SHP2 inhibitor
Protocol: Briefly, female MRL/MpJ-fas lpr (MRL/lpr), MRL/Mpj and C57BL/6J mice were purchased from the Jackson Laboratory (Bar Harbor, Me.). For experiments, mice within each group were ip injected with either vehicle (DMSO) or the SHP2 inhibitor (7.5 mg/kg/per day). […] Body weight was measured daily and treatment dosage was adjusted accordingly. At the end of the treatment period, mice were sacrificed with CO2 exsanguination and SLE targeted organs were removed. For each mouse, spleen, kidney, and heart weight were calculated. In addition, total animal body weight and tibia length were measured. Peripheral blood/serum was also collected for use in the cytokine assays described below.
PTP assays were conducted as previously described in Kontaridis et al., J Biol Chem. 2006; 281:6785-6792, using para-nitrophenyl phosphate (pNPP, obtained from Sigma) as substrate. […] Reactions were terminated with 0.2 N NaOH and phosphate release was determined by measuring A410. […]

[2] = test system: T cells isolated from the spleen of SLE-prone mice; test: Proliferation and viability of cultured mouse T cells; format: cell-based
Protocol: Whole tissue cell cultures prepared from mouse spleen and axillary lymph nodes were generated as described above. From within this total cell preparation, total T cells from spleen and the double negative T cells from axillary lymph nodes were further purified through negative selection using a pan T cell isolation kit from Milenyi Biotec (San Diego, Calif.). […] Next, 20 μl of anti-biotin beads were added per 1×10^7 cells and the reaction was kept on ice for another 30 minutes. After centrifuging at 2000 rpm for 5 minutes at 4° C., the pellet was resuspended in 2 ml of T cell isolation buffer (D-PBS, pH7.2, 0.5% FBS and 2 mM EDTA) and the T cells were purified through a magnetic sorting column (MACS).
The purity of isolated T cells routinely exceeded 94%. After purification, T cells were resuspended in RPMI1640 medium with 10% FBS and 1×10^5 cells/well in 100 ul total volume was loaded onto a 96-well plate, either left uncoated or precoated with anti-CD3 antibody (1 ug/ml) (OKT3; Biolegend). All cells loaded onto wells precoated with anti-CD3 antibody were also mixed with anti-CD28 antibody (0.5 μg/ml) (CD28.2; BioLegend) to help potentiate the T cell signaling response. Plated cells were cultured for 48 hours in either the presence of vehicle (DMSO) or Shp2 inhibitor (10 μg/ml). Following the incubation, 15 μl of medium was collected for various cytokine activity analyses.
For cell viability, an MTT (thiazolyl Blue tetrazolium Bromide, M2128, Sigma, St. Louis, Mo.) assay was employed. Briefly, 10 μl of the MTT labeling reagent (final concentration 0.5 mg/ml) was loaded into each cell culture well (96-well plate) and then incubated for 4 hours in a humidified chamber. Following incubation, 100 μl of solubilization solution (0.04N in absolute isopropanol) was added to each well, resuspended, and then incubated at 37° C. for an additional hour. Spectrophotometric absorbance of the samples was assessed using a microplate reader at a wavelength of 595 nm. T cell numbers/proliferation was assessed by cell count using a hemocytometer. In brief, 1×10^5 cells were plated in wells and cultured for 48 hours. 10 μl of cell suspension was then removed and mixed together with 10 μl of trypan blue solution (0.4%, T8154, Sigma). After mixing, 10 μl of the mixture was loaded onto the hemocytometer and the total average number of cells/well was calculated.
Moreover, the proliferative effects observed were specific to the double-negative T cell population (FIG. 20A).

MRL/lpr mice = test: Longevity study; format: in vivo, mouse; settings: SLE-prone MRL/lpr mice, 7.5 mg/kg/day ip from 11 weeks of age; listed as SHP2 inhibitor
Protocol: Female MRL/lpr mice were used for a survival/longevity curve analysis. Mice either ip injected with vehicle (DMSO) or SHP2 inhibitor (7.5 mg/kg/each day) were followed beginning at 11 weeks of age to assess tolerance to the inhibitor and longevity/survival curve. The testing was terminated when the last mouse in the control group died, at 26 weeks.

Sequence of SHP2 (P35235 whole entry): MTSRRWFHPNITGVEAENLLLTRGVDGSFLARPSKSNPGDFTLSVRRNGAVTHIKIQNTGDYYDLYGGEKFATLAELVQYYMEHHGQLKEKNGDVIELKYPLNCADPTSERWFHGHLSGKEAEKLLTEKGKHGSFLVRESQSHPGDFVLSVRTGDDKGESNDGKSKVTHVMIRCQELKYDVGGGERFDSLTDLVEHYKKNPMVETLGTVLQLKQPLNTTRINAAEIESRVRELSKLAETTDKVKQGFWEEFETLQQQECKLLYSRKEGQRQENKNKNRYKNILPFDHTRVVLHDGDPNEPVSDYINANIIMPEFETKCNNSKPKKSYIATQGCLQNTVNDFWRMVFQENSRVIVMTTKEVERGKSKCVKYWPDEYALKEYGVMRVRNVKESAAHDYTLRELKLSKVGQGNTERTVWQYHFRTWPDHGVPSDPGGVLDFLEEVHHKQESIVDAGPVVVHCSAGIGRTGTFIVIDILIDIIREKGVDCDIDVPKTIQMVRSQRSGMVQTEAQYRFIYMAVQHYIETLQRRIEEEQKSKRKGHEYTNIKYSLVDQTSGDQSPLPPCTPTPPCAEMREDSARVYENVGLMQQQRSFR

Cn1c(-c2cccc(NC(=O)C(=O)Nc3ccc(-c4ccsc4)cc3)c2)c(I)c2cc(C(=O)O)c(O)cc21 [11a-1]
T cell viability ([1]; human SLE T cell cultures): no differences in viability
T cell proliferation in response to CD3 ([1]; human SLE T cells, 48 hours, 10 μg/ml): reduced T cell proliferation
secretion of IFNγ in response to T cell activation ([1]; human SLE T cells, CD3 antibody, 48 hours, 10 μg/ml): significantly decreased the secretion of IFNγ activity
SHP2 activity in tissue lysates (SHP2): normalized SHP2 activity back to levels of WT; also recorded: normalize SHP2 activity
total number / proliferation of double-negative T cells ([2]; MRL/lpr, CD3 activation, 48 hours culture, listed as SHP2 inhibitor): decreased the total number of double-negative T cells; also recorded: decreases proliferation
viability of tissue-cultured double-negative T cells ([2]; MTT, absence or presence of CD3 ab, listed as SHP2 inhibitor): did not affect viability; also recorded: does not affect viability
total T cell viability ([2]; MTT, absence or presence of CD3 antibody): no effect on total T cell viability
inactive and CD3 activated T cell proliferation ([2]; SLE mouse splenic T cells, 48 hours culture): significantly inhibited
effects in WT or MRL/MpJ control cells ([2]; presence or absence of stimulation): No effects were observed
lifespan / survival (Kaplan-Meier) (MRL/lpr mice): significantly increased lifespan; also recorded: increased longevity/survival effect
